In US10538544B1, “Method for administering cisplatin and a thiocyanate complex to treat ovarian cancer” (priority 2018, dated 2020):

Experiments:
[1] = system: A2780 S (cisplatin sensitive) human ovarian tumor cell line; assay: MTT assay, cell viability, 72 h, A2780 S; assay type: cell-based; settings: read-out: IC50 Values against A2780 S
Procedure: (§1) MTT assay. The IC50 values in 72 hours of the compounds on human ovarian tumor cell lines, A2780 S (cisplatin sensitive) and A2780 CR (cisplatin resistance) were identified by cell viability test. 6000 cells per well in 100 μL cell media were seeded. After 24 h, all supernatant was aspirated out. Then 200 μL of drug solution is added to the first column of each well, and 100 μL of medium were added into the remaining well. The 100 μL of drug solution from first column was taken and mix well with the next column by repeated pipetting using a multichannel pipettor. The last two columns were leaved without drug addition to serve as blank control. After 72 h, supernatants in each well was replaced with 100 μL of 10% MTT (3-(4,5-dimethylthiazol-2-yl)-2,5-diphenyltetrazolium bromide) tetrazolium reduction assay solution, and incubated for at least 45 minutes at 37° C. After aspirating incubated solution, 100 μL of DMSO was added into each well to dissolve formazan crystals. The plates were then read using plate reader at 570 nm. The in vitro cytotoxicity of three platinum complexes (1), (2) and (3) was evaluated against a pair human ovarian tumor cell lines, A2780 S (cisplatin sensitive) and A2780 CR (cisplatin resistant). For comparison, anticancer activity of cisplatin was also evaluated under the same conditions. The IC50 values and cell viability curves are shown in Table 3 and FIG. 5 respectively.

[2] = system: A2780 CR (cisplatin resistant) human ovarian tumor cell line; assay: MTT assay, cell viability, 72 h, A2780 CR; assay type: cell-based; settings: for IC50: MTT, 72 h, A2780 CR (cisplatin resistant), read-out: IC50 Values against A2780 CR; for Resistance factor: calculated from IC50 in A2780 CR and A2780 S
Procedure: as §1

[3] = background, literature; cited from earlier work
[4] = background, literature; cited from earlier work; remark: listed apart in the source

IC50 [1] [µM]	IC50 [2] [µM]	Compound	Resistance factor [2]	cytotoxicity compared with cisplatin against A2780 CR cells ([2]; A2780 CR cells, in words)	renal toxicity compared with cisplatin [3]	effectiveness as antiproliferative agent compared with cisplatin [4]
16.4 ± 1.35	15 ± 1.21	[Pt(S2CNBn2)2].py [(2)]	0.92	–	–	–
8.92 ± 0.58	8.83 ± 0.83	CC(C)N(C(=S)[S-])C(C)C.CC(C)N(C(=S)[S-])C(C)C.[Pt+2] [(3), [Pt(S2CN^i Pr2)2]]	1.00	–	–	–
5 ± 0.097	5.91 ± 0.92	CC(C)CN(CC(C)C)C(=S)[S-].CC(C)CN(CC(C)C)C(=S)[S-].[Pt+2] [(1), [Pt(S2CN^i Bu2)2]]	1.18	better cytotoxicity than cisplatin	–	–
–	–	[Pt(ESDT)(Py)Cl]	–	–	much lower renal toxicity	more effective as antiproliferative agent than cisplatin

Compound	IC50 [1] [µM]	IC50 [2] [µM]	Resistance factor [2]	cytotoxicity compared with cisplatin against A2780 CR cells ([2]; A2780 CR cells, in words)	renal toxicity compared with cisplatin [3]	effectiveness as antiproliferative agent compared with cisplatin [4]
N.N.[Cl][Pt][Cl] [Cisplatin]	0.33 ± 0.011	6.37 ± 1	19.20	–	–	–
